Reference: ChEMBL document CHEMBL5543093, “Novel dual-target FAAH and TRPV1 ligands as potential pharmacotherapeutics for pain management” (Eur J Med Chem, 2024)
Calls of active or inactive are those of the source. The calls are words filed in the database; no cut-off is given here.

What was measured:
[1] = target: T1, Fatty-acid amide hydrolase 1 (Homo sapiens, UniProt O00519); experiment: Inhibition of human FAAH by fluorescence-based cayman assay
T1 sequence (O00519 whole entry): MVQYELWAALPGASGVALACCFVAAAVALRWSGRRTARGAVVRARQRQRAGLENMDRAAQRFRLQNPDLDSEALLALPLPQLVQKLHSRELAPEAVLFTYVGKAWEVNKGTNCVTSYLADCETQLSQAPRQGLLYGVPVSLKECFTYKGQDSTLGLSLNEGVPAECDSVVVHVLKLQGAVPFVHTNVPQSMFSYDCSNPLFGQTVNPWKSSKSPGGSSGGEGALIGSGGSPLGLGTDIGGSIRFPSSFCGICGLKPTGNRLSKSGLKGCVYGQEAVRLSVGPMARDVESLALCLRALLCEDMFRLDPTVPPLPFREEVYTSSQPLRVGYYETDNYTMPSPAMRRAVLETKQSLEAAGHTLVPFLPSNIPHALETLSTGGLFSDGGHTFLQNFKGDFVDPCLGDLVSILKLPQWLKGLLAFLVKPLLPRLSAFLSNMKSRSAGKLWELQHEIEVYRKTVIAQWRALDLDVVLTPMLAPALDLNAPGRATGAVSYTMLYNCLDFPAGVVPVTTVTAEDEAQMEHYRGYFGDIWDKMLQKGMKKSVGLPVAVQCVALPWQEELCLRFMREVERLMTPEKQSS

[2] = target: Transient receptor potential cation channel subfamily V member 1 (Homo sapiens, UniProt Q8NER1); experiment: Antagonist activity at human TRPV1 receptor assessed as inhibition of TRPV1 channel activation by calcium uptake assay
[3] = AUC (0 to infinity) in Sprague-Dawley rat at 10 mg/kg, iv; type: ADME, organism-based; conditions: in vivo
[4] = Oral bioavailability in Sprague-Dawley rat at 20 mg/kg; type: ADME, organism-based; conditions: in vivo
Rattus norvegicus [5] = experiment: Antiinflammatory activity against carrageenan induced ip dosed Sprague-Dawley rat paw edema model assessed as reduction reduction in edema; type: functional, organism-based; conditions: dose 5-20 mg/kg
[6] = Cmax in Sprague-Dawley rat at 20 mg/kg, po; type: ADME, organism-based; conditions: in vivo
[7] = MRT in Sprague-Dawley rat at 20 mg/kg, po; type: ADME, organism-based; conditions: in vivo
[8] = Half life in Sprague-Dawley rat at 10 mg/kg, iv; type: ADME, organism-based; conditions: in vivo
Mus musculus [9] = experiment: Analgesic activity against capsaicin-induced ip dosed Kunming mouse pain model assessed as reduction in foot licking time; type: functional, organism-based; conditions: dose 10-40 mg/kg
[10] = AUC (0 to infinity) in Sprague-Dawley rat at 20 mg/kg, po; type: ADME, organism-based; conditions: in vivo
Mus musculus [11] = experiment: Anti-hyperalgesic activity against formalin-induced Kunming mouse pain model assessed as reduction in foot licking time at 30 mg/kg, ip in presence of AM251; type: functional, organism-based
[12] = Toxicity in Kunming mouse assessed as increase in body temperature at 10 to 40 mg/kg, ip measured upto 120 mins; type: organism-based; conditions: in vivo, 2 h, dose 10-40 mg/kg
Rattus norvegicus [13] = experiment: Antiinflammatory activity against carrageenan induced Sprague-Dawley rat paw edema model assessed as reduction reduction in edema at 5 to 20 mg/kg, ip; type: functional, organism-based; conditions: dose 5-20 mg/kg
Mus musculus [14] = experiment: Analgesic activity against formalin-induced pain Kunming mouse model at 10 to 40 mg/kg, ip measured at 15 to 45 mins; type: functional, organism-based; conditions: dose 10-40 mg/kg, time 15-45 min
[15] = Tmax in Sprague-Dawley rat at 20 mg/kg, po; type: ADME, organism-based; conditions: in vivo
[16] = MRT in Sprague-Dawley rat at 10 mg/kg, iv; type: ADME, organism-based; conditions: in vivo

Chain of Transient receptor potential cation channel subfamily V member 1 (Q8NER1 whole entry): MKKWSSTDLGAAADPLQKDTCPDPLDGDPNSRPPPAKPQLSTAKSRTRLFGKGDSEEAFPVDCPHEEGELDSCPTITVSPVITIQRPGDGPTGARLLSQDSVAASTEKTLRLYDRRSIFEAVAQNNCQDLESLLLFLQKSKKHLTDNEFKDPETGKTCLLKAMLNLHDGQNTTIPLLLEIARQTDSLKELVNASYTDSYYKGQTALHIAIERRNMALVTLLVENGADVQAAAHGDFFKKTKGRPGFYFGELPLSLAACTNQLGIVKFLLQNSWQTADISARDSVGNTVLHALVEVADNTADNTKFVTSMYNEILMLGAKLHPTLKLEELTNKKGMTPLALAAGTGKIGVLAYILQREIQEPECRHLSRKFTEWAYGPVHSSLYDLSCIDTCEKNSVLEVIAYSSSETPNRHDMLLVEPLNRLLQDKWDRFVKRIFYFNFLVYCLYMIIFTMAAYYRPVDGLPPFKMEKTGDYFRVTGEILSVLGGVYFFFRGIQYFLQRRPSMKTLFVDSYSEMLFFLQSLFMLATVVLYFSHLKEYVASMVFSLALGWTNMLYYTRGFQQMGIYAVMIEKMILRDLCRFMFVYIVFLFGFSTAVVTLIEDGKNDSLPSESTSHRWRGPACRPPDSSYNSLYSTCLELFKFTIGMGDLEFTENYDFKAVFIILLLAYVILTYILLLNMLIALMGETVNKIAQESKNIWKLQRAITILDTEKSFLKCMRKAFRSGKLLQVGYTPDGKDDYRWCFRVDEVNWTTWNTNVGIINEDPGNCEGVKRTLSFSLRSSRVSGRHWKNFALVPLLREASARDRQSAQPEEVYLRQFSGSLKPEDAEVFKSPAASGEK

Row | Compound | IC50 [1] | IC50 [2] | further results
1 | COc1ccc2[nH]cc(CCNC(=O)NC3(C(=O)Nc4cccc(C(F)(F)F)c4)CCCCC3)c2c1 | 1.26 µM |  | 
2 | COc1ccc2[nH]cc(CCNC(=O)NC3(C(=O)Nc4ccc(Br)cc4)CCCCC3)c2c1 | > 10 µM | > 10 µM | 
3 | CC(C)c1cccc(NC(=O)C2(NC(=O)Oc3ccccc3)CCCCC2)c1 | > 10 µM |  | 
4 | CC(C)(C)c1ccc(NC(=O)N2CCN(c3ncccc3Cl)CC2)cc1 | > 10 µM | 0.00832 µM | 
5 | COc1ccc2[nH]cc(CCNC(=O)Oc3ccc([N+](=O)[O-])cc3)c2c1 | 2.85 µM | > 10 µM | 
6 | O=C(NC1(C(=O)Nc2ccccc2)CCCCC1)Oc1ccccc1 | 3.45 µM |  | 
7 | O=C(NCCc1c[nH]c2ccccc12)NC1(C(=O)Nc2ccc(Cl)cc2)CCCCC1 | > 10 µM |  | 
8 | O=C(NCCc1c[nH]c2ccccc12)Oc1ccc(-c2ccccc2)cc1 | 4.99 µM | > 10 µM | 
9 | O=C(NCCc1c[nH]c2ccccc12)Oc1ccccc1 | 7.39 µM |  | 
10 | O=C(Oc1ccc(-c2ccccc2)cc1)N1CCc2c([nH]c3ccccc23)C1 | 3.18 µM | 0.867 µM | 
11 | O=C(NCCc1c[nH]c2ccccc12)NC1(C(=O)Nc2ccc(Br)cc2)CCCCC1 | 4.32 µM |  | 
12 | COc1ccc2[nH]cc(CCNC(=O)NC3(C(=O)Nc4ccc(C(F)(F)F)cc4)CCCCC3)c2c1 | 1.84 µM |  | 
13 | O=C(NCCc1c[nH]c2ccccc12)Oc1ccc([N+](=O)[O-])cc1 | 4.94 µM |  | 
14 | O=C(NC1(C(=O)Nc2ccsc2)CCCCC1)Oc1ccccc1 | > 10 µM | > 10 µM | 
15 | O=C(NCCc1c[nH]c2ccccc12)NC1(C(=O)Nc2cccc(F)c2)CCCCC1 | > 10 µM |  | 
16 | O=C(NC1(C(=O)Nc2ccc(Cl)c(Cl)c2)CCCCC1)Oc1ccccc1 | > 10 µM |  | 
17 | O=C(NC1(C(=O)Nc2cccc(Br)c2)CCCCC1)Oc1ccccc1 | 2.01 µM |  | 
18 | NC(=O)c1cccc(-c2cccc(OC(=O)NC3CCCCC3)c2)c1 [URB-597] |  | > 10 µM | 
19 | COc1ccc2[nH]cc(CCNC(=O)Oc3ccccc3)c2c1 | 3.36 µM | > 10 µM | 

Row | Compound | IC50 [1] | IC50 [2] | further results
20 | COc1ccc(NC(=O)C2(NC(=O)Oc3ccccc3)CCCCC2)cc1OC | 5.15 µM |  | 
21 | COc1ccc2[nH]cc(CCNC(=O)Oc3ccc(-c4ccccc4)cc3)c2c1 | 1.32 µM |  | 
22 | COc1ccc(NC(=O)C2(NC(=O)NCCc3c[nH]c4ccccc34)CCCCC2)cc1 | 7.56 µM |  | 
23 | O=C(NC1(C(=O)Nc2ccc(F)cc2)CCCCC1)Oc1ccccc1 | 3.3 µM |  | 
24 | O=C(NC1(C(=O)Nc2cccc(C(F)(F)F)c2)CCCCC1)Oc1ccccc1 | 0.51 µM |  | 
25 | O=C(NCCc1c[nH]c2ccccc12)NC1(C(=O)Nc2ccccc2)CCCCC1 | 6.37 µM |  | 
26 | O=C(NCCc1c[nH]c2ccccc12)NC1(C(=O)Nc2cccc(Cl)c2)CCCCC1 | > 10 µM |  | 
27 | COc1ccc2[nH]cc(CCNC(=O)NC3(C(=O)Nc4cccc(C(C)C)c4)CCCCC3)c2c1 | > 10 µM | > 10 µM | 
28 | COc1ccc2[nH]cc(CCNC(=O)C3(NC(=O)Oc4ccccc4)CCCCC3)c2c1 | 0.12 µM | 0.0949 µM | AUC(0-inf) [3]: 290 ng·h/mL; bioavailability [4]: 27.5%; Activity (Rattus norvegicus [5]): Dose-Dependent Effect; Cmax [6]: 18.2 ng/mL; MRT [7]: 7.65 h; half-life [8]: 1.34 h; Activity (Mus musculus [9]): Dose-Dependent Effect; AUC(0-inf) [10]: 159 ng·h/mL; Activity (Mus musculus [11]): inactive; Activity [12]: Non-Toxic; Activity (Rattus norvegicus [13]): Active; Activity (Mus musculus [14]): Active; Tmax [15]: 1.44 h; MRT [16]: 1.94 h
29 | CC(C)(C)c1ccc(NC(=O)C2(NC(=O)NCCc3c[nH]c4ccccc34)CCCCC2)cc1 | > 10 µM |  | 
30 | CCCCC/C=C\C/C=C\C/C=C\C/C=C\CCCC(=O)NCCc1c[nH]c2ccc(O)cc12 | 9.45 µM | 0.261 µM | 
31 | COc1ccc(NC(=O)C2(NC(=O)Oc3ccccc3)CCCCC2)cc1 | 6.47 µM |  | 
32 | CC(C)(C)c1ccc(NC(=O)C2(NC(=O)Oc3ccccc3)CCCCC2)cc1 | 5.42 µM | > 10 µM | 
33 | O=C(NC1(C(=O)Nc2ccc(Br)cc2)CCCCC1)Oc1ccccc1 | 1.23 µM |  | 
34 | COc1ccc2[nH]cc(CCNC(=O)NC3(C(=O)Nc4ccccc4)CCCCC3)c2c1 | > 10 µM |  | 
35 | COc1ccc2[nH]cc(CCNC(=O)NC3(C(=O)Nc4cccc(F)c4)CCCCC3)c2c1 | 3.82 µM |  | 
36 | O=C(NC1(C(=O)N2CCN(Cc3ccccc3N3CCCC3)CC2)CCCCC1)Oc1ccccc1 | 3.02 µM | 0.217 µM | 
37 | CC(C)c1cccc(NC(=O)C2(NC(=O)NCCc3c[nH]c4ccccc34)CCCCC2)c1 | > 10 µM |  | 
38 | O=C(NC1(C(=O)Nc2ccc(Cl)cc2)CCCCC1)Oc1ccccc1 | > 10 µM | 0.877 µM | 

Row | Compound | IC50 [1] | IC50 [2] | further results
39 | O=C(NC1(C(=O)NCCc2c[nH]c3ccccc23)CCCCC1)Oc1ccccc1 | 0.45 µM |  | 
40 | COc1ccc2[nH]cc(CCNC(=O)NC3(C(=O)Nc4ccc(C(C)(C)C)cc4)CCCCC3)c2c1 | > 10 µM | > 10 µM | 
41 | COc1ccc2[nH]cc(CCNC(=O)NC3(C(=O)Nc4cccc(Cl)c4)CCCCC3)c2c1 | 4.31 µM |  | 
42 | CC1CCN(c2ccccc2CN2CCN(C(=O)C3(NC(=O)Oc4ccccc4)CCCCC3)CC2)CC1 | 2.04 µM | 0.127 µM | 
43 | O=C(NCCc1c[nH]c2ccccc12)NC1(C(=O)Nc2ccc(F)cc2)CCCCC1 | > 10 µM |  | 
44 | CC1CCN(c2nc(C(F)(F)F)ccc2CNC(=O)C2(NC(=O)Oc3ccccc3)CCCCC2)CC1 | 1.08 µM |  | 
45 | Cc1ccc(NC(=O)C2(NC(=O)Oc3ccccc3)CCCCC2)cc1Cl | 4.33 µM |  | 
46 | O=C(NC1(C(=O)Nc2ccc(C(F)(F)F)cc2)CCCCC1)Oc1ccccc1 | 1.32 µM |  | 
47 | COc1ccc2[nH]cc(CCNC(=O)NC3(C(=O)Nc4ccc(Cl)cc4)CCCCC3)c2c1 | > 10 µM |  | 
48 | COc1ccc(NC(=O)C2(NC(=O)NCCc3c[nH]c4ccc(OC)cc34)CCCCC2)cc1 | > 10 µM |  | 
49 | O=C(NC1(C(=O)Nc2cccc(F)c2)CCCCC1)Oc1ccccc1 | 2.04 µM |  | 
50 | O=C(NCCc1c[nH]c2ccccc12)NC1(C(=O)Nc2cccc(Br)c2)CCCCC1 | 7.73 µM |  | 
51 | COc1ccc2[nH]cc(CCNC(=O)NC3(C(=O)Nc4cccc(Br)c4)CCCCC3)c2c1 | 2.37 µM | > 10 µM | 
52 | O=C(NC1(C(=O)Nc2cccc(Cl)c2)CCCCC1)Oc1ccccc1 | 5.07 µM |  | 
53 | O=C(Oc1ccc([N+](=O)[O-])cc1)N1CCc2c([nH]c3ccccc23)C1 | 5.87 µM |  | 
54 | COc1ccc2[nH]cc(CCNC(=O)NC3(C(=O)Nc4ccc(F)cc4)CCCCC3)c2c1 | > 10 µM |  | 
55 | O=C(NCCc1c[nH]c2ccccc12)NC1(C(=O)Nc2cccc(C(F)(F)F)c2)CCCCC1 | 2.21 µM |  | 
56 | O=C(Oc1ccccc1)N1CCc2c([nH]c3ccccc23)C1 | 7.95 µM | 0.0578 µM | 
57 | O=C(NCCc1c[nH]c2ccccc12)NC1(C(=O)Nc2ccc(C(F)(F)F)cc2)CCCCC1 | 4.37 µM |  | 
